Reference: patent US11173142B2, “Cancer treatment composition” (BOTANICAL RESOURCE HOLDINGS (PROPRIETARY) LIMITED, priority 2015, dated 2021)

What was measured:
[1] = system: breast epithelial carcinoma cells (MCF-7); assay: XTT viability assay, breast epithelial carcinoma cells, 24-hour treatment with isolates; format: cell-based; conditions: 24 hour incubation, FIG. 4; for effect on viability of cancer cells: 3 concentrations per component around 0.5, 1 and 2 ug/ml respectively
Protocol: (§1) To calculate doses, the concentrations of the specific components for serving sizes of 15 mg, 30 mg and 60 mg per person per day for Δ7 mesembrenone, mesembrenone and non-alkaloids respectively were expressed as a fraction of total body fluid volume. In an attempt to account for digestive losses, these concentrations were halved, to reach cell-culture “equivalent” doses of 0.5 ug/ml, 1 ug/ml and 2 ug/ml respectively. Following standard laboratory practice, a range of doses around these was assessed. For clarity, only 3 concentrations per component are presented (doses of 10-fold smaller were also tested for ail components, but were not different from lowest doses presented herein and thus omitted).
(§2) Briefly, the procedure itself entailed 24-hour treatment of confluent cell culture samples of normal breast epithelial cells (MCF-12A) and breast epithelial carcinoma cells (MCF-7) with varying doses of the test products. At the end of this period, the mitochondrial viability of cells was assessed using the XTT assay method. Viability was measured and expressed relative to an appropriate control.
Results are illustrated in FIG. 4 of the accompanying drawings. Results are expressed as the percentage of viable cells after a 24 hour incubation with the test substances. Bars are means of repeated experiments (a minimum of 3 repeat experiments in triplicate) and error bars indicate standard deviations from the mean. Asterisk (*) indicate significant reductions in cancer cell viability.

[2] = system: normal breast epithelial cells (MCF-12A); assay: XTT viability assay, normal breast epithelial cells, 24-hour treatment with isolates; format: cell-based; conditions: 24 hour incubation, highest dose assessed, FIG. 4
Protocol: as §1, §2
Results are illustrated in FIG. 4 of the accompanying drawings. Results are expressed as the percentage of viable cells after a 24 hour incubation with the test substances. […]

Row | SMILES | effect on viability of cancer cells [1] | effect on normal cell survival [2] | anti-cancer effect compared with the other isolates ([1]; Δ7 mesembrenone dosed 50% less than mesembrenone)
1 | COc1ccc([C@@]23C=CC(=O)C[C@@H]2N(C)CC3)cc1OC [mesembrenone] | clear dose-response effects | seemed to limit growth of normal cells to some extent | 
2 | COc1ccc(C23CCC(=O)C=C2N(C)CC3)cc1OC (centres unmarked) [Δ7 mesembrenone] | clear dose-response effects | not affecting normal cell survival | most potent anti-cancer effect
